Type in all cases: cell-based, Arabidopsis thaliana
The subject of one experiment is H2O2 in guard cells. Description: Detection and quantification of H2O2 (H2DCFDA fluorescence). Particulars: 200 μM, leaf epidermal tissue, after 30 min. As for the experimental part: (§1) Detection and Quantification of H2O2 and NO: Col-0 plants were grown on soil for 2 to 4 weeks under continuous light at 21° C. Plants were placed in the dark for 24 h to ensure closure and then transferred to the light for 1 h. After 1 h in the light, mature basal leaves were excised and blended in a Waring blender on the low setting for approximately 10 s to isolate epidermal tissues, and the tissues were placed in 3 mL of 30 mM KCl, 10 mM Mes-KOH, pH 6.16 buffer in light for 2 h (Pei et al., 2000; Murata et al., 2001). DAF-2 DA and H2DCFDA were dissolved in DMSO to produce 5 mM and 10 mM stock solutions, respectively, and these were stored at −20° C. in 30 μL, aliquots. Fifty μM H2DCFDA or 15 μM DAF-2 DA was added to the medium in the dark, and after 30 min, 10 μM ABA, 200 μM ATPγS, or buffer (ATP control) was also added to the medium in the dark for 30 min. Peels were then rinsed by decanting the treatment solution and adding 3 mL fresh leaf buffer to the peels. Peels were rinsed twice as described. A peel from each of the three treatments (ABA, ATPγS and buffer) were placed on the same microscope slide and observed sequentially. A second study was staggered 30 to 45 min after the first by loading the H2DCFDA or DAF-2 DA dye to new peels 30 to 45 min after the first round of dye was added. Confocal laser scanning microscopy (CLSM) was performed with a Leica SP2 AOBS confocal microscope (Leica Microsystems, Bannockburn, Ill., USA). Laser power was set at 15%, with an excitation of 488 nm and an emission of 525 nm. A series of 0.5 μm optical sections with average intensity projection along the z axis were collected and made into one 2D image with greater focal depth. All images were obtained with the same software scanning settings including detector gain and laser intensity settings.

The subject of experiment [1] is stomata (guard cells) in whole leaves. Description: Stomatal aperture opening studies, whole leaves in the dark. Particulars: whole leaf studies (data not shown). As for the experimental part: (§2) Stomatal Aperture Studies: Arabidopsis thaliana ecotypes Columbia (Col-0) and Wassilewskija (WS) were used as wild types in this study. Col-0, nia1nia2, atrbohD/F, R2-4A and WS plants were all grown on autoclaved Metro-Mix 200 soil at 22° C. under continuous light. The mutant seeds nia1nia2 nia2-5; CS 2356; Col-0 background) were obtained from Dr. N. M. Crawford (University of California at San Diego) and the mutant seeds atrbohD/F (Col-0 background) were obtained from Dr. J. M. Kwak (University of Maryland). The RNAi mutant apyrase line (R2-4A) is in WS background, so WS ecotype was used as the control wild type for these studies. Leaves from 2 to 3 week old Col-0 plants, or R2-4A and WS plants treated with 4 μM estradiol for 1 week after development of mature basal leaves were used for peel and whole leaf studies. Plants were placed in the dark and watered 24 h before an study. For opening studies, plants were used immediately after 24 h dark treatment and all treatments were done in the dark except for the light treated leaves or peels, thus the control stomata are dark controls. For closure studies, plants were placed in the light 3 h before an study to induce stomatal opening and all treatments were done in the light, thus the control stomata are light controls. For peel studies, epidermal peels were made from the underside of the leaf and treatments were applied to the peels for 1 h. For whole leaf studies, leaves were removed and treatments were applied for 2 h. For each treatment, about 3 or 4 peels collected from different leaves or 3 or 4 different leaves of at least two different plants were floated with the abaxial side up in petri dishes on 3 mL of Arabidopsis leaf buffer consisting of 10 mM KCl, 25 mM MES pH 6.15 (Melotto et al., 2006) and the chemical being tested. For whole leaf studies peels were collected after the treatment.
For studies testing the effects of ATPγS, ADPγS, AMPS, RB2, and PPADS (Sigma, St. Louis, Mo., USA) 20 mM stocks were made by dissolving the compounds in de-ionized water. For studies testing the effects of apyrase inhibitors, 7.5 mg/mL of NGXT191 and of inhibitor #13 (Windsor et al., 2002) was dissolved in dimethyl sulfoxide (DMSO) and then applied at a dilution of […] for a final concentration of 0.1% DMSO. ABA (Sigma, St. Louis, Mo., USA) was dissolved in ethanol in 10 mM stocks and then applied at a dilution of 1:1000. The stocks were stored at −20° C. while not in use. The production of the anti-AtAPY1 antibodies used is described by Steinebrunner et al. (2003). […] The concentration of the immune and pre-immune sera, determined by Bradford assay (Bio-Rad), was 10.2 μg/mL and 7.7 μg/mL, respectively.
(§3) After treatment, photos of stomata were taken using a light microscope at 20×. Stomatal aperture width was measured using the image processing software ImageJ. Typically, photos were taken of 70 to 90 stomata per treatment of which only 50 stomata were measured for each treatment. For each treatment the ratio of closed stomata (width of 0) to open stomata was determined for all stomata imaged and this ratio was maintained in the 50 stomata that were measured for each treatment. Data shown uses apertures determined as width/length, however data in all studies also obtained as width only and generally width/length and width only data are in agreement with each other. Statistical significance of the measurements for the treatments was determined using the Student's t test in Microsoft Excel.

Experiment [2] has the same test system. Put plainly: Stomatal aperture closure studies, whole leaves in the light. On the procedure: as §2
(§4) For studies testing the effects of ATPγS, ADPγS, AMPS, RB2, and PPADS (Sigma, St. Louis, Mo., USA) 20 mM stocks were made by dissolving the compounds in de-ionized water. For studies testing the effects of apyrase inhibitors, 7.5 mg/mL of NGXT191 and of inhibitor #13 (Windsor et al., 2002) was dissolved in dimethyl sulfoxide (DMSO) and then applied at a dilution of […] for a final concentration of 0.1% DMSO. ABA (Sigma, St. Louis, Mo., USA) was dissolved in ethanol in 10 mM stocks and then applied at a dilution of 1:1000. The stocks were stored at −20° C. while not in use. The production of the anti-AtAPY1 antibodies used is described by Steinebrunner et al. (2003). The crude immune and pre-immune sera were purified using protein A-Sepharose following the protocol described by Martin (1982) with the slight modification that the buffers used were azide-free. The protein-A purified sera were both used at a 1:1000 dilution in leaf stomatal aperture studies. The concentration of the immune and pre-immune sera, determined by Bradford assay (Bio-Rad), was 10.2 μg/mL and 7.7 μg/mL, respectively.
as §3

The test system of experiment [3] is stomata (guard cells) in epidermal peels. Put plainly: Stomatal aperture opening studies, epidermal peels in the dark. Particulars: for effect on stomatal aperture: darkness, 1 h. On the procedure: as §2, §4, §3
In another experiment the test system is NO in guard cells. Description: Detection and quantification of NO (DAF-2 DA fluorescence). As for the experimental part:
as §1

Experiment [4] has as its system stomata (guard cells) in epidermal peels. Description: Stomatal aperture closure studies, epidermal peels in the light. The settings on record: for effect on stomatal aperture: epidermal peels, light, 1 h. On the procedure: as §2, §4, §3
Experiment [5] concerns stomata of nia1nia2 mutant leaves. Description: Stomatal closing studies with whole leaves of nia1nia2 mutant. Particulars: 200 ATPγS. As for the experimental part: (§5) Stomatal Aperture Studies: Arabidopsis thaliana ecotypes Columbia (Col-0) and Wassilewskija (WS) were used as wild types in this study. Col-0, nia1nia2, atrbohD/F, R2-4A and WS plants were all grown on autoclaved Metro-Mix 200 soil at 22° C. under continuous light. The mutant seeds nia1nia2 nia2-5; CS 2356; Col-0 background) were obtained from Dr. N. M. Crawford (University of California at San Diego) and the mutant seeds atrbohD/F (Col-0 background) were obtained from Dr. J. M. Kwak (University of Maryland). The RNAi mutant apyrase line (R2-4A) is in WS background, so WS ecotype was used as the control wild type for these studies. […]
as §3, with “Statistical significance of the measurements for the treatments was determined using the Student's t test in Microsoft Excel.” left out

Experiment [6] concerns stomata of atrbohD/F mutant leaves. Description: Stomatal closing studies with whole leaves of atrbohD/F mutant. The settings on record: 200 ATPγS. On the procedure:
as §5
as §3, with “Statistical significance of the measurements for the treatments was determined using the Student's t test in Microsoft Excel.” left out

Structures are written as SMILES.

With `Nc1ncnc2c1ncn2[C@@H]1O[C@H](COP(=O)(O)OP(=O)(O)OP(O)(O)=S)[C@@H](O)[C@H]1O` [ATPγS], the “increase in H2DCFDA fluorescence in guard cells” value in the experiment on H2O2 in guard cells turned out to be 3 fold. In addition, the “threshold concentration for stomatal opening” value in experiment [1] is on record as “higher than 5 μM”. The “effect on stomatal aperture” value in experiment [2] (200 μM, leaves, light, 2 h) is on record as “induced stomatal closure”; in experiment [3] (5 μM), “induced opening”; in experiment [3] (15 μM) it was “induced opening”; in experiment [4] (150 μM), “no statistically significant effect”; in experiment [4] (200 μM) it was “induced stomatal closure”; in experiment [4] (250 μM) it was “induced stomatal closure”. Also, the “effect on stomatal aperture” value in experiment [5] and in experiment [6] was “no effect on stomatal aperture” each time. Further, the “threshold for nucleotide-induced stomatal closure” value in experiment [2] (whole leaf studies, compared with peel studies (150 to 200 μM; not shown)) was “same threshold”. For the same compound, the “mean stomatal aperture compared with light treatment” value in experiment [3] (low concentrations (5 and 15 μM)) was “smaller than the aperture induced by light treatment”. Further, in the experiment on NO in guard cells (200 μM, leaf epidermal tissue, after 45 min), the “increase in DAF-2 DA fluorescence in guard cells” value came to 2.5 fold. For the same compound, the “mean stomatal aperture after closure compared with ABA” value in experiment [4] (200 μM versus 10 μM ABA) is given as “statistically the same as the aperture induced by treatment with 10 μM ABA”.
As to `CC1(C)N([O])C(c2ccc(C(=O)O)cc2)=[N+]([O-])C1(C)C` [cPTIO], the “effect on ABA- and ATPγS-induced DAF-2 DA fluorescence” value with NO in guard cells (co-incubation (data not shown)) is recorded as “blocked”.

The record behind these values is patent US20140123342A1, “Regulation of Stomatal Apertures by Apyrases and Extracellular Nucleotides” (BOARD OF REGENTS, THE UNIVERSITY OF TEXAS SYSTEM, priority 2011, published 2014).
